From US8889704B2 (Array BioPharma Inc., priority 2011, dated 2014) come the findings set out here.

Assay type in all cases: biochemical
Experiment [1] has as its target recombinant rat PIM-3 (Rattus norvegicus, UniProt O70444). Kind of experiment: PIM-3 Assay (as Example A). Conditions: averaged IC50; 30 μM ATP, 3.75 μM PIM2tide, 0.5 nM PIM-3. In a few lines: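 33P incorporation from 30 μM [γ-33P]ATP into 3.75 μM PIM2tide by 0.5 nM rat PIM-3, 60 min at 22 °C in pH 7.4 MOPS buffer, read by P81 filter capture and scintillation counting. Compounds tested in 3-fold dilutions up to 10 μM final, 2% DMSO; percent-of-control data fitted by 4-parameter logistic for IC50.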

The target of experiment [2] is PIM-1 (Homo sapiens, UniProt P11309). Kind of experiment: Enzyme PIM-1 Assay ([33P]ATP incorporation into PIM2tide, filter plate). As to conditions: averaged IC50; 35 μM ATP, 7.5 μM PIM2tide, 0.25 nM PIM-1, 60 min at 22° C. In a few lines:
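Ten-point, 3-fold dilution series (10 μM top, 2% DMSO final) tested for inhibition of 33P transfer from 35 μM ATP to 7.5 μM PIM2tide by 0.25 nM PIM-1. Reaction 60 min, 22 °C, pH 7.4 MOPS/MgCl2 buffer; phosphocellulose capture, scintillation counting, IC50 where fitted POC equals 50.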

Experiment [3] has as its target T1, GST-tagged recombinant full-length human Pim-2 (Homo sapiens, UniProt Q9P1W9).
T1 construct: GST-tagged recombinant full-length human Pim-2; GST
Description: PIM-2 Assay (as Example A). As to conditions: averaged IC50; 4 μM ATP, 1.0 μM PIM2tide, 1.5 nM Pim-2. The gist of the method: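 IC50 was derived by 4-parameter logistic fitting of percent-of-control data over a 10-point, 3-fold series (highest 10 μM, 2% DMSO). Reactions held 1.5 nM GST-Pim-2 (full-length, human), 4 μM [γ-33P]ATP and 1.0 μM PIM2tide for 60 min at 22 °C, pH 7.4; 33P-peptide captured on P81 filters.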

Where a name gives a salt, the structure may show the parent alone.

Chain of PIM-1 (P11309 whole entry, species assumed): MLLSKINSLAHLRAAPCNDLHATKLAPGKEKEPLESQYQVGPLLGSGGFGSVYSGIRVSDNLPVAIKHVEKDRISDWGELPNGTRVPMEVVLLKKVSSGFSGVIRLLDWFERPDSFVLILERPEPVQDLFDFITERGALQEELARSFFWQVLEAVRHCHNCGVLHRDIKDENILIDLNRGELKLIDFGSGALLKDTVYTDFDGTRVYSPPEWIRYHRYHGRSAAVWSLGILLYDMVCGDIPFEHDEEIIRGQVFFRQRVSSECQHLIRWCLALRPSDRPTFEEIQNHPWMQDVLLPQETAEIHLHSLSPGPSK
T1 sequence (Q9P1W9 whole entry): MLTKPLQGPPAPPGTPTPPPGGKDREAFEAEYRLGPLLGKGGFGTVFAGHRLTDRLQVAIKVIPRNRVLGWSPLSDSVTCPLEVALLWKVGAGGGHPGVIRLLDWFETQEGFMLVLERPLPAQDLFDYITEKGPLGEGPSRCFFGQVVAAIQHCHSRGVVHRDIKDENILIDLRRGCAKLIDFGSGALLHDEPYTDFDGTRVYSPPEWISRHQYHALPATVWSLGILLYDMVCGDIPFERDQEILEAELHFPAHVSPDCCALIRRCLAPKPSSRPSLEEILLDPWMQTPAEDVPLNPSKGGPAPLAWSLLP

In the case of `CC(C)(C)NC(=O)c1ccc2ccc(-c3nnc4ccc([C@@H](N5CC[C@H](N)C5)C(F)(F)F)cn34)nc2c1C1CC1` [Example 83, 2-(6-((R)-1-((S)-3-aminopyrrolidin-1-yl)-2,2,2-trifluoroethyl)-[1,2,4]triazolo[4,3-a]pyridin-3-yl)-N-tert-butyl-8-cyclopropylquinoline-7-carboxamide dihydrochloride], the IC50 (in general, the concentration needed to halve the response being measured) in experiment [1] was determined as 1 nM; in experiment [2], 1.13 nM; in experiment [3] it was 28 nM.
For `N#Cc1ccc2ccc(-c3nnc4ccc([C@@H](N5CC[C@H](N)C5)C(F)(F)F)cn34)nc2c1` [Example 84, 2-(6-((R)-1-((S)-3-aminopyrrolidin-1-yl)-2,2,2-trifluoroethyl)-[1,2,4]triazolo[4,3-a]pyridin-3-yl)quinoline-7-carbonitrile] the same measures were 12 nM, 0.73 nM and over 100 nM.
For `CC(C)Oc1cc(F)cc2ccc(-c3nnc4ccc([C@@H](N5CC[C@H](N)C5)C(F)(F)F)cn34)nc12` [Example 86, (S)-1-((R)-2,2,2-trifluoro-1-(3-(6-fluoro-8-isopropoxyquinolin-2-yl)-[1,2,4]triazolo[4,3-a]pyridin-6-yl)ethyl)pyrrolidin-3-amine hydrochloride] the same measures were 0.3 nM, 0.14 nM and 31 nM.
For `CC(C)NC(=O)c1cccc2ccc(-c3nnc4ccc([C@@H](N5CC[C@H](N)C5)C(F)(F)F)cn34)nc12` [Example 87, 2-(6-((R)-1-((S)-3-aminopyrrolidin-1-yl)-2,2,2-trifluoroethyl)-[1,2,4]triazolo[4,3-a]pyridin-3-yl)-N-isopropylquinoline-8-carboxamide dihydrochloride] the same measures were over 100 nM, 35.5 nM and over 100 nM.
As to `N#Cc1cccc2ccc(-c3nnc4ccc([C@@H](N5CC[C@H](N)C5)C(F)(F)F)cn34)nc12` [Example 88, 2-(6-((R)-1-((S)-3-aminopyrrolidin-1-yl)-2,2,2-trifluoroethyl)-[1,2,4]triazolo[4,3-a]pyridin-3-yl)quinoline-8-carbonitrile dihydrochloride], the IC50 in experiment [1] is 18 nM; in experiment [2], 3.26 nM; in experiment [3], over 100 nM.
For `N#Cc1cccc2ccc(-c3nnc4ccc([C@@H](N5C[C@@H]6C[C@H]5CN6)C(F)(F)F)cn34)nc12` [Example 89, 2-(6-((R)-1-((1S,4S)-2,5-diazabicyclo[2.2.1]heptan-2-yl)-2,2,2-trifluoroethyl)-[1,2,4]triazolo[4,3-a]pyridin-3-yl)quinoline-8-carbonitrile dihydrochloride] the same measures were 14 nM, 5.38 nM and over 100 nM.
For `CC(C)Oc1cccc2ccc(-c3nnc4ccc([C@H](N5CC[C@@](C)(N)C5)C(F)(F)F)cn34)nc12` [Example 90, (R)-3-methyl-1-((S)-2,2,2-trifluoro-1-(3-(8-isopropoxyquinolin-2-yl)-[1,2,4]triazolo[4,3-a]pyridin-6-yl)ethyl)pyrrolidin-3-amine dihydrochloride] the same measures were 23 nM, 2.26 nM and over 100 nM.
Regarding `CC(C)Oc1cccc2ccc(-c3nnc4ccc([C@@H](N5CC[C@@](C)(N)C5)C(F)(F)F)cn34)nc12` [Example 91, (R)-3-methyl-1-((R)-2,2,2-trifluoro-1-(3-(8-isopropoxyquinolin-2-yl)-[1,2,4]triazolo[4,3-a]pyridin-6-yl)ethyl)pyrrolidin-3-amine dihydrochloride], the IC50 in experiment [1] is 2.6 nM; in experiment [2] it was 0.25 nM; in experiment [3], over 100 nM.
